From patent publication US5612331A, “Tetrahydrocarbazole derivatives as 5-HT1-like agonists” (SmithKline Beecham PLC, priority 1992, dated 1997)
Where a name gives a salt, the structure may show the parent alone.

Target: T1, 5-HT1-like receptor (Oryctolagus cuniculus, UniProt P49144)
T1 construct: the basilar artery removed with the aid of a dissecting microscope; from tissue; host or cells: rabbit basilar artery ring segments, endothelium removed
Test: Rabbit isolated basilar artery, cumulative concentration-effect curves (isometric tension)
Assay type: cell-based
Settings: rabbit isolated basilar artery rings, endothelium removed; in presence of ascorbate, indomethacin, cocaine, ketanserin and prazosin
Protocol: Experiments were performed in intracranial arteries from rabbit isolated basilar artery in a similar method to one described previously (Parsons and Whalley, 1989. Eur J Pharmacol 174, 189-196.).
In brief, rabbits were killed by overdose with anaesthetic (sodium pentobarbitone). The whole brain was quickly removed and immersed in ice cold modified Kreb's solution and the basilar artery removed with the aid of a dissecting microscope. The Krebs solution was of the following composition (mM) Na^+ (120); K^+ (5); Ca^2+ (2.25); Mg^2+ (0.5); Cl^- (98.5); SO4^2- (1); EDTA (0.04), equilibrated with 95% O2 /5% CO2. The endothelium was removed by a gentle rubbing of the lumen with a fine metal wire. Arteries were then cut into ring segments (ca 4-5 mm wide) and set up for recording of isometric tension in 50 ml tissue baths in modified Krebs solution with the additional supplement of (mM); […] (20); fumarate (10); pyruvate (5); L-glutamate (5) and glucose (10). The arteries were then placed under a resting force of 3-4 mN maintained at 37° C. and the solution bubbled with 95% O2 /5% CO2.
After tests for initial reactivity with 90 mM KCl depolarising solution and for lack of acetylcholine-induced relaxation of 5-HT ([…]) precontraction, cumulative concentration-effect curves ([…]) to 5-HT were constructed in the presence of ascorbate […], cocaine […], indomethacin […], ketanserin […] and prazosin […].
Following a 45-60 min wash period, cumulative concentration-effect curves to the test compounds or 5-HT (as a time match control) were constructed in the presence of ascorbate, indomethacin, cocaine, ketanserin and prazosin.

T1 sequence (P49144 whole entry): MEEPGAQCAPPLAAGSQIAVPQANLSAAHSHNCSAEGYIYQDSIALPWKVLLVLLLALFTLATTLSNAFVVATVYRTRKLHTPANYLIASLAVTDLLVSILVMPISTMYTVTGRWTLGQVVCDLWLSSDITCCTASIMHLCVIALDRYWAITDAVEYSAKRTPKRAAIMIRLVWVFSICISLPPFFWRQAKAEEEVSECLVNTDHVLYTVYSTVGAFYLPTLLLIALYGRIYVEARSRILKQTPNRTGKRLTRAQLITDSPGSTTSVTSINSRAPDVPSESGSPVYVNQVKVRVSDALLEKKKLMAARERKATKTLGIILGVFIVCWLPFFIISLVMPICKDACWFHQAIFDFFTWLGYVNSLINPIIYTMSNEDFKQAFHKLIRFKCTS

EC50 | SMILES
90 to 4010 nM | CS(=O)(=O)Nc1ccc(CCNC(=O)c2ccc3[nH]c4c(c3c2)CC(N)CC4)cc1 (stereo not drawn) [Example 7, 3-Amino-6-N-[2-(4-methylsulphonamidophenyl)ethyl]carboxamido-1,2,3,4-tetrahydrocarbazole oxalate salt]
90 to 4010 nM | NC1CCc2[nH]c3ccc(C(=O)NCCCc4ccccc4)cc3c2C1 (stereo not drawn) [Example 1, 3-Amino-6-N-(3-phenylpropyl)carboxamido-1,2,3,4-tetrahydrocarbazole oxalate salt]
90 to 4010 nM | Nc1ccc(CCNC(=O)c2ccc3[nH]c4c(c3c2)CC(N)CC4)cc1 (stereo not drawn) [Example 6, 3-Amino-6-N-[2-(4-aminophenyl)ethyl]carboxamido-1,2,3,4-tetrahydrocarbazoleoxalate salt]
90 to 4010 nM | COc1cccc(/C=C/CNC(=O)c2ccc3[nH]c4c(c3c2)CC(N)CC4)c1 (stereo not drawn) [Example 14, 3-Amino-6-[E-3-(3-methoxyphenyl)prop-2-enyl]carboxamido-1,2,3,4-tetrahydrocarbazole oxalate salt]
90 to 4010 nM | NC1CCc2[nH]c3ccc(C(=O)NC/C=C/c4ccccc4)cc3c2C1 (stereo not drawn) [Example 15, 3-Amino-6-(E-3-(phenylprop-2-enyl)carboxamido-1,2,3,4-tetrahydrocarbazole oxalate salt]
90 to 4010 nM | NC1CCc2[nH]c3ccc(C(=O)NCCc4ccccc4)cc3c2C1 (stereo not drawn) [Example 3, 3-Amino-6-N-(2-phenylethyl)carboxamido-1,2,3,4-tetrahydrocarbazole]
90 to 4010 nM | COc1ccc(CCNC(=O)c2ccc3[nH]c4c(c3c2)CC(N)CC4)cc1 (stereo not drawn) [Example 8, 3-Amino-6-N-[2-(4-methoxyphenyl)ethyl]carboxamido-1,2,3,4-tetrahydrocarbazole oxalate salt]
90 to 4010 nM | NC1CCc2[nH]c3ccc(C(=O)NCCc4ccc([N+](=O)[O-])cc4)cc3c2C1 (stereo not drawn) [Example 5, 3-Amino-6-N-[2-(4-nitrophenyl)ethyl]carboxamido-1,2,3,4-tetrahydrocarbazolefumarate salt]
90 to 4010 nM | NC1CCc2[nH]c3ccc(C(=O)NCCc4ccc(S(N)(=O)=O)cc4)cc3c2C1 (stereo not drawn) [Example 9, 3-Amino-6-N-[2-(4-phenylsulphonamido)ethyl]carboxamido-1,2,3,4-tetrahydrocarbazole]
90 to 4010 nM | NC1CCc2[nH]c3ccc(C(=O)NC/C=C/c4cccc([N+](=O)[O-])c4)cc3c2C1 (stereo not drawn) [Example 18, 3-Amino-6-[E-3 (3-nitrophenyl)prop-2-enyl]carboxamido-1,2,3,4-tetrahydrocarbazole oxalate salt]
90 to 4010 nM | COc1ccc(CCCNC(=O)c2ccc3[nH]c4c(c3c2)CC(N)CC4)cc1 (stereo not drawn) [Example 17, 3-Amino-6-[3-(4-methoxyphenyl)propyl]carboxamido-1,2,3,4-tetrahydrocarbazole oxalate salt]
90 to 4010 nM | COc1ccc(/C=C/CNC(=O)c2ccc3[nH]c4c(c3c2)CC(N)CC4)cc1 (stereo not drawn) [Example 13, 3-Amino-6-[E-3-(4-methoxyphenyl)prop-2-enyl]carboxamido-1,2,3,4-tetrahydrocarbazole oxalate salt]
